According to publication PMC5841205, “Pharmacological targeting of apelin impairs glioblastoma growth” (Brain, 2017):
Positions of bridges follow the written chain, without caps; N, C: chain ends. Residues, ends and D or L forms follow the SMILES beside them.

Tests used:
[1] = Solubility in vehicles; assay type: physicochemical
Protocol: Conditions Solubility Solubility […]
saline (10%) + hydroxypropyl-β-cyclodextrin >0.69 >1.20 […]
A. MM54 compound (1 mg) was re-suspended in the different vehicles for 24h, RT, under gentle rotation. Solutions were analysed by HPLC and concentrations calculated using DMSO-re-suspended MM54 as standard. […]

[2] = test system: tumour-bearing mice; experiment: Cardiac frequency, blood pressure and glycaemia, MM54; assay type: in vivo, mouse; details: MM54 2 mg/kg bi-weekly for 4 weeks
Protocol: (§1) To test potential toxic effects of MM54 and MM193 in vivo, mice were administered 2 mg/kg of MM54, MM193 or vehicle bi-weekly for 4 weeks. At sacrifice, blood was taken for analysis and the heart, kidney, aorta and liver removed, weighed and fixed for histological analysis. For the glycaemic study, animals were starved for 6 h prior to sacrifice.
Figure 6 Pharmacological inhibition of APLNR by MM54 reduces xenograft progression. (A) Tumour-bearing mice were fasted for 6 h and the effect of either MM54 (2 mg/kg) or DMSO vehicle treatment on glycaemia measured via blood analysis. (B) Cardiac frequency and blood pressure were measured in random-fed tumour-bearing animals. (C) Nude mice were implanted with GSC#9 (5 × 10^5 cells) in each flank and treated with either DMSO vehicle or the APLNR antagonist (MM54, 2 mg/kg) bi-weekly from Week 4. Tumour volume was measured weekly until Week 11. n = 10/group. (D and E) Cryosections from GSC tumours were assessed for PECAM (red), Ki67 (green), NESTIN (green), SOX2 (green) and apoptosis (TUNEL). (F) Tumour sections were assessed for pS9-GSK3β staining in DMSO vehicle- and MM54-treated animals. Scale bars = 40 µm. […] All panels are representative of n = 3, unless specified.

[3] = test system: C57Bl/6J female mice; experiment: Complete blood count; assay type: in vivo, mouse
Protocol: as §1
Total blood count DMSO MM54
Red blood cells (M/µl) 6,8 ± 0,9 7,5 ± 0,3
Mean corpuscular volume (fl) 46,4 ± 0,2 47,2 ± 0,4
Mean corpuscular haemoglobin (pg) 13,0 ± 0,0 13,2 ± 0,2
Mean corpuscular haemoglobin concentration (g/dl) 27,9 ± 0,1 27,9 ± 0,3 Red cell distribution width (%) 15,7 ± 0,2 16,1 ± 0,1
Table S5. Blood analysis after MM54 treatment
In order to test potential toxic effects of MM54 in vivo, C57Bl/6J female mice were administered 2 mg/kg of MM54 or DMSO vehicle, bi-weekly for 4 weeks. At sacrifice, blood was taken for analysis and the heart, kidney, aorta and liver removed, weighed and fixed for histological analysis (as shown in Figure S4). n=4 mice/group, 63 mean±SEM.

[4] = Plasma pharmacokinetics after intraperitoneal administration; assay type: in vivo, mouse
Protocol: B. MM54 compound was solubilized in water and administered intraperitoneally (IP) at the dose of 3.6 mg/kg to healthy mice.
Mice (3/group) were sacrificed at 10 min, 30 min, 60 min, 2h, 4h, 6h, 8h and 24h post-injection. Plasma and brains were collected and further processed for LC-MS/MS analysis. B/P index is 0.24. AUC is area under the curve. n.d. stands for ‘not able to be

[5] = test system: heart, kidney and liver of mice; experiment: Histological and biochemical analysis of heart, kidney and liver; assay type: in vivo, mouse
Protocol: To test potential toxic effects of MM54 and MM193 in vivo, mice were administered 2 mg/kg of MM54, MM193 or vehicle bi-weekly for 4 weeks. At sacrifice, blood was taken for analysis and the heart, kidney, aorta and liver removed, weighed and fixed for histological analysis. For the glycaemic study, animals were starved for 6 h prior to sacrifice. […]
In order to test potential toxic effects of MM54 in vivo, C57Bl/6J female mice were administered 2 mg/kg of MM54
or DMSO vehicle, bi-weekly for 4 weeks. At sacrifice, blood was taken for analysis and the heart, kidney, aorta and
liver removed, weighed and fixed for histological analysis (as shown in Figure S4). n=4 mice/group, 63 mean±SEM.

[6] = saline (10%) + hydroxypropyl-β-cyclodextrin, 1 mg, 24h, RT, gentle rotation, HPLC
[7] = saline (10%) + kolliphor EL, 1 mg, 24h, RT, gentle rotation, HPLC
[8] = saline (15%) + kolliphor HS15 + PEG (10%) + ethanol (5%), 1 mg, 24h, RT, gentle rotation, HPLC
[9] = saline (15%) + kolliphor HS15, 1 mg, 24h, RT, gentle rotation, HPLC
[10] = saline (NaCl 0.9%), 1 mg resuspended, 24h, RT, gentle rotation, HPLC
[11] = MM54 2 mg/kg bi-weekly, 4 weeks, female C57Bl/6J mice, n=4, mean±SEM
[12] = mouse, plasma, healthy mice, IP 3.6 mg/kg in water, 3/group, LC-MS/MS

CC(C)C[C@@H]1NC(=O)[C@H](CCCNC(=N)N)NC(=O)[C@@H]2CCCN2C(=O)[C@H](CCCNC(=N)N)NC(=O)[C@@H](NC(=O)[C@H](Cc2c[nH]cn2)NC(=O)[C@H](CCCCN)NC(=O)[C@@H]2CSSC[C@H](N)C(=O)N[C@@H](CCCNC(=N)N)C(=O)N3CCC[C@H]3C(=O)N[C@@H](CCCNC(=N)N)C(=O)N[C@@H](CC(C)C)C(=O)N2)CSSC[C@@H](C(=O)O)NC1=O [MM54, cyclo(1–6)CRPRLC-KH-cyclo(9–14)CRPRLC] (H-CRPRLCKHCRPRLC-OH; disulfide 1-6, 9-14)
solubility ([1]; in the tested solutions (vehicles)): good solubility in the tested solutions
Solubility (mM), saline + hydroxypropyl-β-cyclodextrin [1, 6]: > 0.69 mM
Solubility (mg.ml-1), saline + hydroxypropyl-β-cyclodextrin [1, 6]: > 1.20 mg/mL
Solubility (mM), saline + kolliphor EL [1, 7]: > 0.60 mM
Solubility (mg.ml-1), saline + kolliphor EL [1, 7]: > 1.04 mg/mL
Solubility (mM), saline + kolliphor HS15 + PEG + ethanol [1, 8]: > 0.73 mM
Solubility (mg.ml-1), saline + kolliphor HS15 + PEG + ethanol [1, 8]: > 1.27 mg/mL
Solubility (mM), saline + kolliphor HS15 [1, 9]: > 0.69 mM
Solubility (mg.ml-1), saline + kolliphor HS15 [1, 9]: > 1.20 mg/mL
Solubility (mg.ml-1), saline [1, 10]: > 1.27 mg/mL
solubility at 24 h [1, 10]: > 0.73 mM
cardiac frequency, blood pressure and glycaemic index [2]: did not induce alterations to these parameters
complete blood count vs vehicle ([3]; MM54 2 mg/kg bi-weekly for 4 weeks, healthy animals): no significant differences
Basophils [3, 11]: 0,19 ± 0,12 K/µl
Eosinophils [3, 11]: 0,52 ± 0,28 K/µl
Haemoglobin [3, 11]: 9,9 ± 0,6 g/dl
Hematocrit [3, 11]: 35,4 ± 1,9%
Lymphocytes [3, 11]: 7,50 ± 0,51 K/µl
Mean corpuscular haemoglobin [3, 11]: 13,2 ± 0,2 pg
Mean corpuscular haemoglobin concentration [3, 11]: 27,9 ± 0,3 g/dl
Mean corpuscular volume [3, 11]: 47,2 ± 0,4 fl
Mean platelet volume [3, 11]: 4,45 ± 0,16 fl
Monocytes [3, 11]: 0,42 ± 0,11 K/µl
Neutrophils [3, 11]: 2,56 ± 0,66 K/µl
Platelet [3, 11]: 301 ± 27 K/µl
Red blood cells [3, 11]: 7,5 ± 0,3 M/µl
Red cell distribution width [3, 11]: 16,1 ± 0,1%
detection in plasma ([4]; healthy animals, intraperitoneal): detected in the plasma and the brain
Cmax (µM), plasma ([4]; healthy mice, IP 3.6 mg/kg in water, 3/group, LC-MS/MS): 0.6 µM
AUC [4, 12]: 1470 ng·h/mL
half-life [4, 12]: 2.37 ± 0.367 h
Cmax ([4]; mouse, plasma, healthy mice, IP 3.6 mg/kg in water, 3/group, LC-MS/MS, read-out: Cmax (µg.ml-1), plasma): 1.1 µg/mL
Tmax ([4]; mouse, plasma, healthy mice, IP 3.6 mg/kg in water, 3/group, LC-MS/MS, read-out: Time Cmax, plasma (converted)): 0.167 h
histological and biochemical analysis of heart, kidney and liver ([5]; MM54 2 mg/kg bi-weekly for 4 weeks vs vehicle): revealed no differences between MM54-treated animals and vehicle controls
overt adverse effects in vivo ([5]; present dose (2 mg/kg), repeated administration): does not exert any overt adverse effects in vivo
